One data set deals with dystrophic mdx mice. Particulars: injection; mostly via activation of TRPV1 and TRPA1; cited from earlier work.
A further data set has as its system myotonia and myalgia. Kind of data set: Previous treatments for myotonia and myalgia (case history).
Where [1] appears, read: Patient 2 (DM2), suspended also for risk of cardiac arrhythmias.
[2] abbreviates: Patient 6 (CLCN1-congenital myotonia).

For the compound `C=C(C)[C@@H]1CCC(C)=C[C@H]1c1c(O)cc(CCCCC)cc1O` [CBD, cannabidiol], in the data set on dystrophic mdx mice, the “effect in dystrophic mdx mice” value is “promoted myotube formation and reduced inflammation”. On to `NC(=O)N1c2ccccc2C=Cc2ccccc21` [carbamazepine], for which the “myotonia under previous treatment” value was “inefficacy” in the data set on myotonia and myalgia (setting [1]); “no relevant improvement of myotonia” in the data set on myotonia and myalgia (setting [2]).

Consider `O=C(NCC1CCCCN1)c1cc(OCC(F)(F)F)ccc1OCC(F)(F)F` (stereo not shown) [flecainid], for which the “myotonia under previous treatment” value in the data set on myotonia and myalgia (setting [2]) was “no relevant improvement of myotonia”.

`CC(C)Cc1ccc(C(C)C(=O)O)cc1` (stereo not shown) [ibuprofen]: the “myalgia under previous treatment” value with myotonia and myalgia (Patient 2 (DM2)) is reported as “unsuccessfully treated”. `Nc1nnc(-c2cccc(Cl)c2Cl)c(N)n1` [lamotrigine]: the “myotonia under previous treatment” value in the data set on myotonia and myalgia (setting [2]) was “no relevant improvement of myotonia”. In the case of `COc1ccccc1OCC(O)COC(N)=O` (stereo not shown) [methocarbamol], the “myalgia under previous treatment” value in the data set on myotonia and myalgia (Patient 2 (DM2)) is “unsuccessfully treated”.

`Cc1cccc(C)c1OCC(C)N` (stereo not shown) [mexiletine]: the “myotonia under previous treatment” value is on record as “inefficacy” in the data set with myotonia and myalgia (setting [1]); “improved the myotonia” in the data set with myotonia and myalgia (setting [2]). Besides, in the data set with myotonia and myalgia (Patient 6, resolved on drug discontinuation), the “drug-related side effect of previous treatment” value was “severe major depression”. `CC(C)C[C@H](CN)CC(=O)O` [pregabalin]: in the data set on myotonia and myalgia (Patient 2 (DM2)), the “myalgia under previous treatment” value is “unsuccessfully treated”. For the same compound, the “myotonia under previous treatment” value in the data set with myotonia and myalgia (setting [1]) was “inefficacy”. As to `Cc1ccc(C(=O)C(C)CN2CCCCC2)cc1` (stereo not shown) [tolperisone], the “myotonia under previous treatment” value in the data set on myotonia and myalgia (setting [2]) was “no relevant improvement of myotonia”.

Values taken from patent publication EP3750528A1, “COMPOSITIONS FOR TREATING DYSTROPHIES AND MYOTONIA” (Nexien Biopharma, Inc., priority 2019, dated 2020).
